In the C3SDB collision cross section collection:

Settings: [M+2K]2+; instrument: TW; calibrated with phosphatidylcholines (ESI+) and phosphatidylethanolamines (ESI-), doubly charged cardiolipins calibrated with poly-DL-…

collision cross section (N2) [Å²]	Structure (SMILES)
428.6	CCCCCC/C=C\CCCCCCCC(=O)OC(COC(=O)CCCCCCCC1CC1CCCCCC)COP(=O)(O)OCC(O)COP(=O)(O)OCC(COC(=O)CCCCCCCCCCCCCCC)OC(=O)CCCCCCC/C=C\CCCCCCCC (stereo not given) [CL(67:3)]

Same assay, conditions: [M+H]+; instrument: TW; calibrated with phosphatidylcholines (ESI+) and phosphatidylethanolamines (ESI-), doubly charged cardiolipins calibrated with poly-DL-…

collision cross section (N2) [Å²]	Structure (SMILES)
279.52	CCCCCCCCCCCCCCCC(=O)OCC(COP(=O)(O)OCCN)OC(=O)CCCCCCCC1CC1CCCCCCCC (stereo not given) [PE(35:1)]
268.72	CCCCCC/C=C\CCCCCCCC(=O)OCC(COP(=O)(O)OCCN)OC(=O)CCCCCCCCCCCCCCC (stereo not given) [PE(32:1)]
212.69	CCCCCCCCCCCCCCC(=O)O[C@H](CO)COP(=O)([O-])OCC[NH3+] [LPE(0:0/15:0)]
215.99	CCCCCCCC/C=C/CCCCCCCC(=O)O[C@H](CO)COP(=O)([O-])OCC[NH3+] [LPE(0:0/18:1)]
206.14	CCCCCCCCCCCCCC(=O)OC[C@@H](O)COP(=O)([O-])OCC[NH3+] [LPE(14:0/0:0)]
219.65	CCCCCCCCC1CC1CCCCCCCC(=O)OC[C@@H](O)COP(=O)([O-])OCC[NH3+] (stereo not given in full) [LPE(19:1/0:0)]

Same assay, conditions: [M+Na]+; instrument: TW; calibrated with phosphatidylcholines (ESI+) and phosphatidylethanolamines (ESI-), doubly charged cardiolipins calibrated with poly-DL-…

collision cross section (N2) [Å²]	Structure (SMILES)
327.7	CCCCCC/C=C\CCCCCCCC(=O)OC[C@H](COP(=O)(O)OC[C@@H](O)COC(=O)CCCCCCCCCCCCCCC)OC(=O)CCCCCCCCCCCCCCC [AcylPG(48:1)]
216.84	CCCCCCCCCCCCCCC(=O)O[C@H](CO)COP(=O)([O-])OCC[NH3+] [LPE(0:0/15:0)]
220.12	CCCCCCCC/C=C/CCCCCCCC(=O)O[C@H](CO)COP(=O)([O-])OCC[NH3+] [LPE(0:0/18:1)]
273.08	CCCCCCCCCCCCCCCC(=O)OCC(COP(=O)(O)OCC(O)CO)OC(=O)CCCCCCCC1CC1CCCC (stereo not given) [PG(31:1)]
287.26	CCCCCCCCCCCCCCCC(=O)OCC(COP(=O)(O)OCC(O)CO)OC(=O)CCCCCCCC1CC1CCCCCCCC (stereo not given) [PG(35:1)]
332.3	CCCCCCCCCCCCCCCC(=O)OC[C@H](O)COP(=O)(O)OC[C@@H](COC(=O)CCCCCCCCCCCCCCC)OC(=O)CCCCCCCC1CC1CCCCCC (stereo not given in full) [AcylPG(49:1)]
212.49	CCCCCCCCCCCCCC(=O)OC[C@@H](O)COP(=O)([O-])OCC[NH3+] [LPE(14:0/0:0)]
225.77	CCCCCCCCC1CC1CCCCCCCC(=O)OC[C@@H](O)COP(=O)([O-])OCC[NH3+] (stereo not given in full) [LPE(19:1/0:0)]
325	CCCCCC/C=C\CCCCCCCC(=O)OC[C@H](COP(=O)(O)OCCNC(=O)CCCCCCCCCCCCCCC)OC(=O)CCCCCCCCCCCCCCC [AcylPE(48:1)]

Same assay, conditions: [M-2H]2-; instrument: TW; calibrated with phosphatidylcholines (ESI+) and phosphatidylethanolamines (ESI-), doubly charged cardiolipins calibrated with poly-DL-…

collision cross section (N2) [Å²]	Structure (SMILES)
408.91	CCCCCC/C=C\CCCCCCCC(=O)OC(COC(=O)CCCCCCCC1CC1CCCCCCCC)COP(=O)(O)OCC(O)COP(=O)(O)OCC(COC(=O)CCCCCCCCCCCCCCC)OC(=O)CCCCCCC/C=C\CCCCCCCC (stereo not given) [CL(69:3)]
394.68	CCCCCC/C=C\CCCCCCCC(=O)OCC(COP(=O)(O)OCC(O)COP(=O)(O)OCC(COC(=O)CCCCCCCCCCCCCC)OC(=O)CCCCCCC/C=C\CCCCCC)OC(=O)CCCCCCC/C=C\CCCCCC (stereo not given) [CL(63:3)]
404.47	CCCCCC/C=C\CCCCCCCC(=O)OC(COC(=O)CCCCCCCC1CC1CCCCCC)COP(=O)(O)OCC(O)COP(=O)(O)OCC(COC(=O)CCCCCCCCCCCCCCC)OC(=O)CCCCCCC/C=C\CCCCCCCC (stereo not given) [CL(67:3)]

Same assay, conditions: [M-H]-; instrument: TW; calibrated with phosphatidylcholines (ESI+) and phosphatidylethanolamines (ESI-), doubly charged cardiolipins calibrated with poly-DL-…

collision cross section (N2) [Å²]	Structure (SMILES)
267.54	CCCCCCCCCCCCCCCC(=O)OCC(COP(=O)(O)OCCN)OC(=O)CCCCCCCC1CC1CCCCCCCC (stereo not given) [PE(35:1)]
252.33	CCCCCCCCCCCCCCCC(=O)OCC(COP(=O)(O)O)OC(=O)CCCCCCCC1CC1CCCCCC (stereo not given) [PA(33:1)]
256.09	CCCCCC/C=C\CCCCCCCC(=O)OCC(COP(=O)(O)OCCN)OC(=O)CCCCCCCCCCCCCCC (stereo not given) [PE(32:1)]
316.96	CCCCCC/C=C\CCCCCCCC(=O)OC[C@H](COP(=O)(O)OC[C@@H](O)COC(=O)CCCCCCCCCCCCCCC)OC(=O)CCCCCCCCCCCCCCC [AcylPG(48:1)]
202.25	CCCCCCCCCCCCCCC(=O)O[C@H](CO)COP(=O)([O-])OCC[NH3+] [LPE(0:0/15:0)]
210.71	CCCCCCCC/C=C/CCCCCCCC(=O)O[C@H](CO)COP(=O)([O-])OCC[NH3+] [LPE(0:0/18:1)]
213.25	CCCCCCCCCCCCCCCC(=O)O[C@H](CO)COP(=O)(O)OCC(O)CO (stereo not given in full) [LPG(16:0)]
259.19	CCCCCCCCCCCCCCCC(=O)OCC(COP(=O)(O)OCC(O)CO)OC(=O)CCCCCCCC1CC1CCCC (stereo not given) [PG(31:1)]
273.44	CCCCCCCCCCCCCCCC(=O)OCC(COP(=O)(O)OCC(O)CO)OC(=O)CCCCCCCC1CC1CCCCCCCC (stereo not given) [PG(35:1)]
258.7	CCCCCCCCCCCCCCCC(=O)OCC(COP(=O)(O)O)OC(=O)CCCCCCCC1CC1CCCCCCCC (stereo not given) [PA(35:1)]
320.54	CCCCCCCCCCCCCCCC(=O)OC[C@H](O)COP(=O)(O)OC[C@@H](COC(=O)CCCCCCCCCCCCCCC)OC(=O)CCCCCCCC1CC1CCCCCC (stereo not given in full) [AcylPG(49:1)]
200.28	CCCCC1CC1CCCCCCCC(=O)OC[C@@H](O)COP(=O)([O-])OCC[NH3+] (stereo not given in full) [LPE(15:1/0:0)]
199.2	CCCCCCCCCCCCCC(=O)OC[C@@H](O)COP(=O)([O-])OCC[NH3+] [LPE(14:0/0:0)]
209.66	CCCCCCCCCCCCCCC(=O)OC[C@@H](O)COP(=O)(O)OCC(O)CO (stereo not given in full) [LPG(15:0)]
214.97	CCCCCCCCC1CC1CCCCCCCC(=O)OC[C@@H](O)COP(=O)([O-])OCC[NH3+] (stereo not given in full) [LPE(19:1/0:0)]
316.85	CCCCCC/C=C\CCCCCCCC(=O)OC[C@H](COP(=O)(O)OCCNC(=O)CCCCCCCCCCCCCCC)OC(=O)CCCCCCCCCCCCCCC [AcylPE(48:1)]
